Ends that are not written are not given here.
Test system: Gram-positive and Gram-negative bacteria representative of the ESKAPE group
Assay type: cell-based
Conditions: average over Gram-positive and Gram-negative ATCC strains of the ESKAPE group
Experimental: The nine AMPs identified in the initial screening were evaluated at concentrations between 1.56–200 µM, against E. coli ATCC® 25922, S. aureus ATCC® 29213, E. faecalis ATCC® 49532, P. aeruginosa ATCC® 9027, and K. pneumoniae ATCC® BAA-1705 (Supplementary Figures S2–S6). […] Only PvAMP66 and PvAMP172 reached the MBC for S. aureus at 50 µM and 100 µM, respectively (Table 2).
The evaluation of the antimicrobial activity of the peptides was conducted using the CLSI’s broth microdilution method for bacterial susceptibility testing. For the screening phase, peptides were evaluated at a single 30 μM concentration, in triplicate and in three independent assays, against the E. coli ATCC® 8739, E. coli ATCC® 25922, S. aureus ATCC® 6538, or S. aureus ATCC® 29213 reference USP and CLSI strains. […] Following this, the bacteria were suspended in Mueller-Hinton broth up to a concentration of approximately 1.50 × 10^8 CFU/mL, as measured by optical density at 600 nm between 0.06 to 0.11 (0.5 McFarland standard), in a Multiskan SkyHigh spectrophotometer (ThermoFisher Scientific, Waltham, MA, USA). […] The plate was incubated for 24 h at 37 °C (BE 500, Memmert GmbH, Büchenbach, Germany) and optical density was measured at 600 nm in a Multiskan SkyHigh spectrophotometer (ThermoFisher Scientific, Waltham, MI, USA). […]

In the case of WKKIKKFF-NH2 [PvAMP66], the “average MIC” value is reported as 46.87 µM.

Source: PMC10812672, “Short Antimicrobial Peptide Derived from the Venom Gland Transcriptome of Pamphobeteus verdolaga Increases Gentamicin Susceptibility of Multidrug-Resistant Klebsiella pneumoniae” (Antibiotics, 2023)
